Experimental data published in paper PMC6549035, “CUMYL-4CN-BINACA Is an Efficacious and Potent Pro-Convulsant Synthetic Cannabinoid Receptor Agonist” (Frontiers in Pharmacology, 2019).

Key:
[1] = molecular target: T1, human CB2 receptor (hCB2) (Homo sapiens, UniProt P34972); experiment: [3H]-CP […] competition radioligand binding on HEK293 membranes
T1 construct: gene CNR2; 3-HA tagged CB2 receptor

[2] = molecular target: T2, human CB1 receptor (hCB1) (Homo sapiens, UniProt P21554); experiment: as above
T2 construct: gene CNR1
T2 sequence (P21554 whole entry): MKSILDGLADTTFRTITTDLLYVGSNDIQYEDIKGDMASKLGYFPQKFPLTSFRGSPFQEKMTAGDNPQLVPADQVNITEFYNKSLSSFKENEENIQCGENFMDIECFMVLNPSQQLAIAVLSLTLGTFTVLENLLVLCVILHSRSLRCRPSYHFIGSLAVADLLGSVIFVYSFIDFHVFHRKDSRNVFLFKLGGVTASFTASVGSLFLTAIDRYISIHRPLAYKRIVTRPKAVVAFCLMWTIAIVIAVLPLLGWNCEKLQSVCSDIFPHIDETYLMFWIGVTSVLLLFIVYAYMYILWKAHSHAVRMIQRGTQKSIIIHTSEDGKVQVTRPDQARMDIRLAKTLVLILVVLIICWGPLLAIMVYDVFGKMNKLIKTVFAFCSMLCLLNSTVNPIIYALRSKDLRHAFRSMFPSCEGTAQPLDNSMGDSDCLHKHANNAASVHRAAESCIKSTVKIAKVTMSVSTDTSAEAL

T1 sequence (P34972 whole entry): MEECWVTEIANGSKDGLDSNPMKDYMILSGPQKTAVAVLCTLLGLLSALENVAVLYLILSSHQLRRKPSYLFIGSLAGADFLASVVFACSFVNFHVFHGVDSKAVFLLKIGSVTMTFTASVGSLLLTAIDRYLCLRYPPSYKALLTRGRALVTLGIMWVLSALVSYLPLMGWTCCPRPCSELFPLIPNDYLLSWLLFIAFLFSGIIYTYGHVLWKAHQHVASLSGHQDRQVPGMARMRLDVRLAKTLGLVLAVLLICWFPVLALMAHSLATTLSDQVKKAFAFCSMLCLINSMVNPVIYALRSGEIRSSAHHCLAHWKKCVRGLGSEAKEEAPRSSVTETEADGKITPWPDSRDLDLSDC

## CC(C)(NC(=O)c1nn(CCCCC#N)c2ccccc12)c1ccccc1 [compound 1, 1-(4-cyanobutyl)-N-(2-phenylpropan-2-yl)indazole-3-carboxamide]
[1]
  Ki: 14.7 nM
[2]
  Ki: 2.6 nM
